{"source": "patent US4757049A", "about": "“Process for using endogenous enkephalins and endorphins to stimulate the immune system of patients with aids” (TNI Pharmaceuticals, Inc., priority 1986, dated 1988)", "key": {"[1]": {"system": "phenylalanyl-t RNA synthetase", "settings": "Laidow et al, J.B.C. 255 (1980); cited from earlier work"}, "L1210 tumor cells": {"system": "L1210 tumor cells", "assay": "Survival of BDF1 mice inoculated with 1×10^6 L1210 cells, cis-platin with and without methionine-enkephalin", "type": "in vivo, mouse", "protocol": "In order to test for any synergistic effect of using an endogenous enkephalin with a known chemo-therapeutic agent, a study involving the inoculation of groups of mice with massive doses (1×10^6) of L1210 tumor cells was performed in a manner analogous to the previous examples transferred in RPMI 1640 at pH 7."}}, "data": [{"compound": "beta-endorphin", "values": [{"measurement": "effect on phenylalanyl-t RNA synthetase", "setting": "[1]", "result": "inhibit"}]}, {"compound": "N.N.[Cl][Pt][Cl]", "note": "[Cis-platin, cis-platin]", "values": [{"measurement": "Median Day of Death ED50", "setting": "L1210 tumor cells; 1×10^6 cells, cis-platin 2 mg/Kg, Met-enkephalin 30 mg/Kg s.c.", "result": 10, "unit": "days"}, {"measurement": "dead/tested, cumulative", "setting": "L1210 tumor cells; 1×10^6 cells, cis-platin 2 mg/Kg, Met-enkephalin 30 mg/Kg s.c., day 9", "result": "3/20"}, {"measurement": "Median Day of Death ED50", "setting": "L1210 tumor cells; 1×10^6 cells, cis-platin 4 mg/Kg, Met-enkephalin 30 mg/Kg s.c.", "result": 10, "unit": "days"}, {"measurement": "dead/tested, cumulative", "setting": "L1210 tumor cells; 1×10^6 cells, cis-platin 8 mg/Kg single dose, Met-enkephalin 30 mg/Kg s.c., day 9", "result": "2/20"}, {"measurement": "Median Day of Death ED50", "setting": "L1210 tumor cells; 1×10^6 cells, cis-platin 8 mg/Kg, Met-enkephalin 30 mg/Kg s.c.", "result": 12, "unit": "days"}, {"measurement": "dead/tested, cumulative", "setting": "L1210 tumor cells; cis-platin 2 mg/Kg, Met-enkephalin 30 mg/Kg s.c., day 10", "result": "13/20"}, {"measurement": "dead/tested, cumulative", "setting": "L1210 tumor cells; cis-platin 2 mg/Kg, Met-enkephalin 30 mg/Kg s.c., day 11", "result": "14/20"}, {"measurement": "dead/tested, cumulative", "setting": "L1210 tumor cells; cis-platin 2 mg/Kg, Met-enkephalin 30 mg/Kg s.c., day 12", "result": "15/20"}, {"measurement": "dead/tested, cumulative", "setting": "L1210 tumor cells; cis-platin 2 mg/Kg, Met-enkephalin 30 mg/Kg s.c., day 13", "result": "17/20"}, {"measurement": "dead/tested, cumulative", "setting": "L1210 tumor cells; cis-platin 2 mg/Kg, Met-enkephalin 30 mg/Kg s.c., day 14", "result": "19/20"}, {"measurement": "dead/tested, cumulative", "setting": "L1210 tumor cells; cis-platin 4 mg/Kg, Met-enkephalin 30 mg/Kg s.c., day 11", "result": "10/20"}, {"measurement": "dead/tested, cumulative", "setting": "L1210 tumor cells; cis-platin 4 mg/Kg, Met-enkephalin 30 mg/Kg s.c., day 12", "result": "15/20"}, {"measurement": "dead/tested, cumulative", "setting": "L1210 tumor cells; cis-platin 4 mg/Kg, Met-enkephalin 30 mg/Kg s.c., day 13", "result": "19/20"}, {"measurement": "dead/tested, cumulative", "setting": "L1210 tumor cells; cis-platin 4 mg/Kg, Met-enkephalin 30 mg/Kg s.c., day 15", "result": "20/20"}, {"measurement": "dead/tested, cumulative", "setting": "L1210 tumor cells; cis-platin 8 mg/Kg, Met-enkephalin 30 mg/Kg s.c., day 12", "result": "4/20"}, {"measurement": "dead/tested, cumulative", "setting": "L1210 tumor cells; cis-platin 8 mg/Kg, Met-enkephalin 30 mg/Kg s.c., day 13", "result": "7/20"}, {"measurement": "dead/tested, cumulative", "setting": "L1210 tumor cells; cis-platin 8 mg/Kg, Met-enkephalin 30 mg/Kg s.c., day 14", "result": "12/20"}, {"measurement": "dead/tested, cumulative", "setting": "L1210 tumor cells; cis-platin 8 mg/Kg, Met-enkephalin 30 mg/Kg s.c., day 15", "result": "16/20"}, {"measurement": "dead/tested, cumulative", "setting": "L1210 tumor cells; cis-platin 8 mg/Kg, Met-enkephalin 30 mg/Kg s.c., day 16", "result": "18/20"}, {"measurement": "dead/tested, cumulative", "setting": "L1210 tumor cells; cis-platin 8 mg/Kg, day 18", "result": "19/20"}, {"measurement": "dead/tested, cumulative", "setting": "L1210 tumor cells; cis-platin 8 mg/Kg, day 20", "result": "20/20"}]}]}
